Measured values as given in PubChem BioAssay (NCI).
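Each compound was tested at five concentrations against cells in 96-well plates for 48 hours. TGI: total growth inhibition.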

Tests used:
Assay in all cases: NCI anticancer screen, dose series, 48 h
MOLT-4 leukemia = system: MOLT-4 leukemia
EKVX NSCLC = system: EKVX NSCLC
NCI-H226 lung = system: NCI-H226 lung
DLD-1 colon = system: DLD-1 colon
OVCAR-5 ovarian = system: OVCAR-5 ovarian
UO-31 renal = system: UO-31 renal
OVCAR-4 ovarian = system: OVCAR-4 ovarian
NCI-H460 lung = system: NCI-H460 lung
BT-549 breast = system: BT-549 breast
HOP-18 NSCLC = system: HOP-18 NSCLC
HT29 colon = system: HT29 colon

Row | SMILES | TGI (MOLT-4 leukemia) [µM] | TGI (EKVX NSCLC) [µM] | TGI (NCI-H226 lung) [µM] | TGI (DLD-1 colon) [µM] | TGI (OVCAR-5 ovarian) [µM] | TGI (UO-31 renal) [µM] | TGI (OVCAR-4 ovarian) [µM] | TGI (NCI-H460 lung) [µM] | TGI (BT-549 breast) [µM] | TGI (HOP-18 NSCLC) [µM] | TGI (HT29 colon) [µM]
1 | COc1cc(CNc2nc3c(NC(C)=O)cc(C(F)(F)F)cc3nc2-c2ccccc2)cc(OC)c1OC | > 100 | > 100 | > 100 | > 100 | > 100 | > 100 | > 100 |  |  |  | 
2 | O=c1c2ccccc2n2nnc3ccc(NCCNCCO)c1c32 | 9.64 | 8.87 | 5.06 | 15.4 | 7 | 3.78 | 6.34 | 2.83 | 10.1 | 8.67 | 6.49
3 | Cc1cc(C)c(C2=NO[C@@H]3[C@H]2C(=O)C=C2N(Cc4ccccc4)CCO[C@@]23O)c(C)c1 | > 100 | > 100 | > 100 | > 100 | > 100 | > 100 | > 100 | > 100 |  | > 100 | > 100
4 | CC(C)C(Nc1c2ccccc2[n+](C)c2ccccc12)C(=O)O (stereo unspecified) | > 100 | > 100 | > 100 | > 100 | > 100 | > 100 | > 100 | > 100 |  | > 100 | > 100
5 | CCOC(=O)C(NC(=O)c1ccccc1)(Nc1ccc(S(=O)(=O)Nc2cc(C)on2)cc1)C(F)(F)F (stereo unspecified) | > 100 | > 100 | > 100 |  | > 100 | > 100 | > 10 | > 100 | > 100 |  | > 100
6 | COc1ccccc1-c1cc(=O)c2cccnc2[nH]1 | > 100 | > 100 | > 100 |  | > 100 | > 100 | > 100 | > 100 | > 100 |  | > 100
7 | O=C(O)C1C2OC(C(Br)C2Br)C1C(=O)O (stereo unspecified) | > 100 | > 100 | > 100 |  | > 100 | > 100 | > 100 | > 100 | > 100 |  | > 100
8 | COc1cc2c(cc1OC)C(C1CC1)ON(C)CC2 (stereo unspecified) | > 100 | > 100 | > 100 |  | > 100 | > 100 | > 100 | > 100 | > 100 |  | > 100
9 | CCOC(=O)CCC(NC(=O)c1ccc(NCc2ccc3nc(OC)c(OC)nc3c2)c2ccccc12)C(=O)OCC (stereo unspecified) | > 100 | > 100 | > 100 |  | > 100 | > 100 | > 100 | > 100 | > 100 |  | > 100
10 | CCOc1ccc(Nc2nc(N)nc(N)c2N=O)cc1 | 76.6 | > 100 | > 100 |  | > 100 | 83.3 | > 100 | > 100 | > 100 |  | > 100
11 | O=C(CCCCCCCCC(=O)N1C(=O)CC(=O)N(c2ccc(Cl)cc2)C1=S)N1C(=O)CC(=O)N(c2ccc(Cl)cc2)C1=S | 75.6 | > 100 | > 100 |  | > 100 | > 100 | > 100 | > 100 | > 100 |  | > 100
